According to patent US20250270209A1 (INTERLINE THERAPEUTICS, INC., priority 2022, published 2025):

What was measured:
[1] = target: LRRK2 wild type enzyme (Homo sapiens, UniProt Q5S007); experiment: Biochemical Assay: LRRK2 TR-FRET (LanthaScreen) kinase assay with LRRKtide substrate; conditions: LRRK2 Inhibition, Table 8
Procedure: 10 mM compound solution was prepared in DMSO. An 11-point, 3-fold dilution was performed, with highest concentration at 10 μM. A 10 mM compound DMSO solution was added to Labcyte LDV plate and the compound concentration of source plate was 10 mM. The 1st compound concentration of Inter plate(Labcyte 384 well PP plate) was 4.938×10^−1 mM which was prepared by transferring 1.5 μL of 10 mM compound from source plate to 28.9 μL DMSO. The 2nd compound concentration of Inter plate was 1.829×10^−2 mM which was prepared by transferring 60 nL of 10 mM compound from source plate to 32.7 μL DMSO. The 3rd compound concentration of Inter plate was 6.774×10^−4 mM which was prepared by transferring 2.5 nL of 10 mM compound from source plate to 36.9 μL DMSO. 100 nL of reference compound was dispensed in column 1 for low control wells and 100 nL of DMSO in column 24 for high control wells. Compounds were dispensed to column 2 to 23 of assay plate and backfilled with DMSO to a total volume of 100 nL.
A 2X LRRK2 enzyme solution (final concentration 3 nM) was prepared in assay buffer (Tris-HCl pH8.0:50 mM, MgCl2: 5 mM, EDTA: 1 mM, Brij-35:0.01%, 2 mM DTT). A 2× substrate solution was prepared: LRRK2 tide substrate (final concentration 400 nM) and ATP (final concentration 25 μM) in assay buffer. 5 μL 2× LRRK2 enzyme solution was dispensed to each well in assay plate by Multidrop. Assay plate was spun at 1,000 rpm for 1 min and incubated for 15 min at 23° C. 5 μL 2× ATP/LRRKtide solution was dispensed to each well in assay plate by Multidrop. Assay plate was spun at 1,000 rpm for 1 min and incubated for 120 min at 23° C.
(§1) A 2× detection solution was prepared: Tb-pERM (pLRRKtide) antibody (final concentration 0.25 nM) and EDTA (final concentration 10 mM) in TR-FRET dilution buffer. 10 μL 2× detection solution was dispensed to each well in assay plate to stop kinase reaction by Multidrop. Assay plate was spun at 1,000 rpm for 1 min and incubate for 30 min at 23° C. Assay plate was then read on Envision configured for LanthaScreen® TR-FRET. pS935 LRRK2 Cell Assay

[2] = target: T1, wild type LRRK2 overexpressed in recombinant HEK-293T cells (Homo sapiens, UniProt Q5S007); experiment: pS935 LRRK2 Cell Assay (HTRF, phospho-LRRK2 Ser935); type: cell-based; conditions: LRRK2 Inhibition, Table 8, 2 hours compound incubation
T1 construct: host or cells: HEK293T (transient transfection with pCMV-LRRK2 WT plasmid)
Procedure: as §1
The following protocol describes an in-vitro method for measuring phosphorylation at Ser935 on wild type LRRK2 overexpressed in recombinant HEK-293T cells. The method is based on HTRF technology, which combines Fluorescence Resonance Energy Transfer (FRET) with Time-Resolved measurement (TR). Phospho-LRRK2 (Ser935) is detected in a sandwich assay format using two different specific antibodies, one labelled with Eu3+-Cryptate (donor) and the second with d2(acceptor).When the fluorophores are in close proximity, excitation of the donor with a light source (flash lamp) stimulates FRET to the acceptor, which in turn fluoresces at a specific wavelength (665 nm). The fluorescence emission at 615 nm from the donor is also measured to allow ratiometric reduction of data. The specific signal is proportional to phospho-LRRK2 (Ser935).
Plasmid transient transfection: DMEM medium, FBS, DPBS, Trans-IT, OPTI-MEM reagents were allowed to warm to room temperature. HEK293T cells were cultured in DMEM +10% FBS complete medium in T150 flasks till around 80% confluency before transfection. Then cells were washed with 10 mL PBS and detached with 3 mL 0.25% typinsin. 30×10E6 HEK293T cells were seeded in DMEM +10% FBS complete medium to a 15 cm dish.
DNA, TransIT-LT1, OPTI-MEM complex were prepared: […] OPTI-MEM was added to a 15 mL cone tube, then […] plasmid was added to OPTI-MEM and mixed, followed by addition of 60 μL TransIT-LT1 to the plasmid OPTI-MEM mixture and mixing. The resulting mixture was incubated for 15 minutes.
The above plasmid, DNA and OPTI-MEM mixture was added dropwise to the 15 cm dish, ensuring the drops were evenly distributed. The culture dish was gently rocked back and forth and from left to right to evenly distribute the complex. The tranfected dish was incubated for 24 hours at 37° C., and 5% CO2.
Transfected HEK293T was collected in the 15 cm dish. Media was aspirated from tissue culture dish, and washed by dispensing 10 mL 1× DPBS into 15 cm dish. 1× DPBS was aspirated and 3 mL trypsin was dispensed to 15 cm dish. The dish was incubated with trypsin at room temperature for 3 min until the cells were detached. 10 mL of DMEM +10% FBS medium were added to 15 cm dish and triturated to ensure homogenous cell suspensions.
Homogenous cell suspensions were transferred to a 50 mL tube, and centrifuged for 5 minutes at 1,000 rmp/min. The supernatant was aspirated and resuspended with 20 mL complete medium. 1 mL of cell suspension was transferred for cell counting. The cell suspension was diluted to 2× 10E5 cells/ml. 50 μL cell suspensions were added to a 384-well plate. The plate was quick spun at 800 rpm for 1 minute, then incubate overnight at 37° C., 5% CO2.
Compound dispensing: compound was diluted (10 mM DMSO stock solution) and added to assay plate (top concentration: 10 μM, 3 fold serial dilution, 9 doses) with duplicates by Tecan liquid handler. The DMSO concentration of each well was normalized to 0.2%. Plates were quick spun at 1,000 rpm for 1 minute. Plates were incubated at 37° C., 5% CO2 for 2 hours.
1× lysis buffer solution supplemented with blocking reagent was prepared (e.g. 1 mL lysis buffer 4X+3 mL water+40 μL stock blocking reagent 100X). Antibodies working solution was prepared by diluting 40-fold d2 and Cryptate antibodies with detection buffer(e.g. 1520 μL detection buffer+40 μL d2-antibody stock solution+[…] Cryptate-antibody stock solution).
After 2 hours incubation, cell plates were taken out from the incubator. […]

T1 sequence (Q5S007 whole entry): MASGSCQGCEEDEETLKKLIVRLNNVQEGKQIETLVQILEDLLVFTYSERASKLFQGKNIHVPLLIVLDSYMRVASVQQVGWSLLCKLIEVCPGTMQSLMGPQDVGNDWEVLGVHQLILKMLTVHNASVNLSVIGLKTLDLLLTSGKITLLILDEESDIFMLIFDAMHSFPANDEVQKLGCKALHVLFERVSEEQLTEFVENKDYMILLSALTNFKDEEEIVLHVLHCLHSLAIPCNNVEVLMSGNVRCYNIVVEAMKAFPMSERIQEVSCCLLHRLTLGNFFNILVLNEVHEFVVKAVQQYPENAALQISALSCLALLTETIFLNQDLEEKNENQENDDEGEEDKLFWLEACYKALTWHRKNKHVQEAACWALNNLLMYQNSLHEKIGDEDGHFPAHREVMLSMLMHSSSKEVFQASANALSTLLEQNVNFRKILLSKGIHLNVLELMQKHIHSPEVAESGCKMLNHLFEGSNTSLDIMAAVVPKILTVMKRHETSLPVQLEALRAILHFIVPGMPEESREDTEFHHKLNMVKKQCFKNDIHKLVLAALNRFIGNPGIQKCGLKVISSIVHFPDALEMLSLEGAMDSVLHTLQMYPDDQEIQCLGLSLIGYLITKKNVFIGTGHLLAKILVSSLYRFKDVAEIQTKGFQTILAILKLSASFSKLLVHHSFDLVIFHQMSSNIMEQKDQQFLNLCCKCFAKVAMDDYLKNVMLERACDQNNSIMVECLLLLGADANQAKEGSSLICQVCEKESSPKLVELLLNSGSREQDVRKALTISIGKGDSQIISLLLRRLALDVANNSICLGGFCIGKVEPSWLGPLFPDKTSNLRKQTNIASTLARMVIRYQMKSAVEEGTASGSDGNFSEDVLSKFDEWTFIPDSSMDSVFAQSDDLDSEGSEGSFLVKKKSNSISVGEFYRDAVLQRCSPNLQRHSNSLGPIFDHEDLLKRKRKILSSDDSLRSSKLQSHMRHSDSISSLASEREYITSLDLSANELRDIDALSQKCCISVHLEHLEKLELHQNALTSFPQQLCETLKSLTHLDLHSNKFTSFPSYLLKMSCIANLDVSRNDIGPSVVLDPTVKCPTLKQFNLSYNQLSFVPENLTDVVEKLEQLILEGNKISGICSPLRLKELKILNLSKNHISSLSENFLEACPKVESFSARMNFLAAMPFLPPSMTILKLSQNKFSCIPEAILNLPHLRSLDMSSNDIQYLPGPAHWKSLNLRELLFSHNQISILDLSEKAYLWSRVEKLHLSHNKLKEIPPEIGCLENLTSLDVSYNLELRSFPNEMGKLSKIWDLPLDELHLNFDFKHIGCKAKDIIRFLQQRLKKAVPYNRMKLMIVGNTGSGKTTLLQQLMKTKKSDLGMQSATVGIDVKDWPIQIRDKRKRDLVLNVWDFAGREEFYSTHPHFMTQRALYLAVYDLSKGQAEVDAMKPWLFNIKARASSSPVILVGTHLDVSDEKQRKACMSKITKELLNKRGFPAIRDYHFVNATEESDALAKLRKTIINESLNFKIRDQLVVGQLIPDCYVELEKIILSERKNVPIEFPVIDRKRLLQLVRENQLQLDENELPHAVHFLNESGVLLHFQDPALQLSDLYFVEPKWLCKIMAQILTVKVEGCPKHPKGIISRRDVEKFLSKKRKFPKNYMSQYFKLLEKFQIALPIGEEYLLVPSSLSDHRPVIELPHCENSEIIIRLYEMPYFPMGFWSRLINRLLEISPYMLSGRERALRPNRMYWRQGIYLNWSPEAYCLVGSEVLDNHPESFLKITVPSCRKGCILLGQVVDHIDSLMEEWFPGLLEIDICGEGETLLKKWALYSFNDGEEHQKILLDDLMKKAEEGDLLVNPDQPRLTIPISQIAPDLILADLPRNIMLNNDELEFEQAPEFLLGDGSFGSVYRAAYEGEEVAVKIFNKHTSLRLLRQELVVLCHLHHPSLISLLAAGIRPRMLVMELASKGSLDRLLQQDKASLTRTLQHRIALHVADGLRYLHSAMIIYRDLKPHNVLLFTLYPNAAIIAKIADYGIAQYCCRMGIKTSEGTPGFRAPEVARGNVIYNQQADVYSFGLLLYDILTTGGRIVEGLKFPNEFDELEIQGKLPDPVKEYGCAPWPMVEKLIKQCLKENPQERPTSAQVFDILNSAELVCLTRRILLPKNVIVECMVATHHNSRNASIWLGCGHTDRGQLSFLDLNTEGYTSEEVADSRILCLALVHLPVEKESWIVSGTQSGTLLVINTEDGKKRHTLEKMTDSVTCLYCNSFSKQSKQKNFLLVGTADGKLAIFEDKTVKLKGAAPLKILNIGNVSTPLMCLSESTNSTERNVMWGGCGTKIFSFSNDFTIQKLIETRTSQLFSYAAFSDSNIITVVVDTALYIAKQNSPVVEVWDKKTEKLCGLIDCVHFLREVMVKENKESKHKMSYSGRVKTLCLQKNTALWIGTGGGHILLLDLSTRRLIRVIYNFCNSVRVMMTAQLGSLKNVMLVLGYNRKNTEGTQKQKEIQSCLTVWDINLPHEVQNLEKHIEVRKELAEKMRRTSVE
LRRK2 wild type enzyme, sequence (Q5S007 whole entry): as above

| SMILES | IC50 [1] [nM] | IC50 [2] [nM] |
| --- | --- | --- |
| C[C@@H]1C[C@H](n2c(CC(=O)NC3CCC3)nc3cnc4ccc(Cl)cc4c32)CCO1 [Compound 332, N-cyclobutyl{3-[(2R,4R)-2-methyltetrahydro-2H-pyran-4-yl]-12-chloro-3,5,8-triazatricyclo[7.4.0.0^2,6]trideca-1(9),2(6),4,7,10,12-hexaen-4-yl}acetamide] | 0.741 | 10.9 |
| COCC(C)(C)CNC(=O)Cc1nc2cnc3ccc(C#N)cc3c2n1[C@@H]1CCO[C@H](C)C1 [Compound 266, N-(3-methoxy-2,2-dimethylpropyl){3-[(2R,4R)-2-methyltetrahydro-2H-pyran-4-yl]-12-cyano-3,5,8-triazatricyclo[7.4.0.0^2,6]trideca-1,4,6,8,10,12-hexaen-4-yl}acetamide] | 0.521 | 8 |
| Cc1ccncc1NC(=O)Cc1nc2cnc3ccc(C#N)cc3c2n1[C@@H]1CCO[C@H](C)C1 [Compound 292, N-(4-methyl-3-pyridyl){3-[(2R,4R)-2-methyltetrahydro-2H-pyran-4-yl]-12-cyano-3,5,8-triazatricyclo[7.4.0.0^2,6]trideca-1,4,6,8,10,12-hexaen-4-yl}acetamide] | 0.473 | 8.23 |
| C[C@@H]1C[C@H](n2c(CNC(=O)CC3CC3)nc3cnc4ccc(C#N)cc4c32)CCO1 [Compound 18, N-({8-cyano-1-[(2R,4R)-2-methyloxan-4-yl]-1H-imidazo[4,5-c]quinolin-2-yl}methyl)-2-cyclopropylacetamide] | 2.58 | 182 |
| C[C@@H]1C[C@H](n2c(CC(=O)Nc3cncc(C#N)c3)nc3cnc4ccc(C#N)cc4c32)CCO1 [Compound 284, N-(5-cyano-3-pyridyl){3-[(2R,4R)-2-methyltetrahydro-2H-pyran-4-yl]-12-cyano-3,5,8-triazatricyclo[7.4.0.0^2,6]trideca-1,4,6,8,10,12-hexaen-4-yl}acetamide] | 0.538 | 20 |
| C[C@@H]1C[C@H](n2c(CC(=O)NCC3CCC3)nc3cnc4ccc(C#N)cc4c32)CCO1 [Compound 89, 2-{8-cyano-1-[(2R,4R)-2-methyloxan-4-yl]-1H-imidazo[4,5-c]quinolin-2-yl}-N-(cyclobutylmethyl)acetamide] | 0.589 | 34 |
| C[C@@H]1C[C@H](n2c(CNC(=O)OC3CC3)nc3cnc4ccc(C#N)cc4c32)CCO1 [Compound 10, cyclopropyl N-({8-cyano-1-[(2R,4R)-2-methyloxan-4-yl]-1H-imidazo[4,5-c]quinolin-2-yl}methyl)carbamate] | 1.92 | 165 |
| C[C@@H]1C[C@H](n2c(CC(=O)Nc3ccn(C4COC4)n3)nc3cnc4ccc(C#N)cc4c32)CCO1 [Compound 346, N-[1-(3-oxetanyl)-3-pyrazolyl]{2-[(2R,4R)-2-methyltetrahydro-2H-pyran-4-yl]-12-cyano-3,5,8-triazatricyclo[7.4.0.0^2,6]trideca-1(9),2(6),4,7,10,12-hexaen-4-yl}acetamide] | 0.555 | 28.5 |
| COc1cc(C(F)(F)F)ncc1NC(=O)Cc1nc2cnc3ccc(C#N)cc3c2n1[C@@H]1CCO[C@H](C)C1 [Compound 228, N-[4-methoxy-6-(trifluoromethyl)-3-pyridyl]{3-[(2R,4R)-2-methyltetrahydro-2H-pyran-4-yl]-12-cyano-3,5,8-triazatricyclo[7.4.0.0^2,6]trideca-1,4,6,8,10,12-hexaen-4-yl}acetamide] | 0.36 | 3.17 |
| C[C@@H]1C[C@H](n2c(CC(=O)Nc3nccc(C4CC4)n3)nc3cnc4ccc(C#N)cc4c32)CCO1 [Compound 338, N-(4-cyclopropyl-2-pyrimidinyl){3-[(2R,4R)-2-methyltetrahydro-2H-pyran-4-yl]-12-cyano-3,5,8-triazatricyclo[7.4.0.0^2,6]trideca-1(9),2(6),4,7,10,12-hexaen-4-yl}acetamide] | 0.364 | 1.87 |
| C[C@@H]1C[C@H](n2c(CC(=O)N[C@H](C)C3CC3)nc3cnc4ccc(C#N)cc4c32)CCO1 [Compound 7, 2-{8-cyano-1-[(2R,4R)-2-methyloxan-4-yl]-1H-imidazo[4,5-c]quinolin-2-yl}-N-[(1R)-1-cyclopropylethyl]acetamide] | 0.794 | 47.2 |
| C[C@@H]1C[C@H](n2c(C3CC(=O)N(c4ccn(C)n4)C3)nc3cnc4ccc(C#N)cc4c32)CCO1 (stereo partly drawn) [Compound 100, 2-[1-(1-methyl-1H-pyrazol-3-yl)-5-oxopyrrolidin-3-yl]-1-[(2R,4R)-2-methyloxan-4-yl]-1H-imidazo[4,5-c]quinoline-8-carbonitrile] | 2.14 | 143 |
| Cc1nn(C)cc1NC(=O)Cc1nc2cnc3ccc(C#N)cc3c2n1[C@@H]1CCO[C@H](C)C1 [Compound 231, N-(1-methyl-3-methyl-4-pyrazolyl){3-[(2R,4R)-2-methyltetrahydro-2H-pyran-4-yl]-12-cyano-3,5,8-triazatricyclo[7.4.0.0^2,6]trideca-1,4,6,8,10,12-hexaen-4-yl}acetamide] | 0.621 | 13.6 |
| C[C@@H]1C[C@H](n2c(CC(=O)Nc3cnccn3)nc3cnc4ccc(Cl)cc4c32)CCO1 [Compound 371, N-2-pyrazinyl{3-[(2R,4R)-2-methyltetrahydro-2H-pyran-4-yl]-12-chloro-3,5,8-triazatricyclo[7.4.0.0^2,6]trideca-1(9),2(6),4,7,10,12-hexaen-4-yl}acetamide] | 1.13 | 5 |
| C[C@@H]1C[C@H](n2c(CC(=O)NCc3cccc(F)n3)nc3cnc4ccc(C#N)cc4c32)CCO1 [Compound 146, 2-{8-cyano-1-[(2R,4R)-2-methyloxan-4-yl]-1H-imidazo[4,5-c]quinolin-2-yl}-N-[(6-fluoropyridin-2-yl)methyl]acetamide] | 0.313 | 4.79 |
| Cc1ccnc(C)c1NC(=O)Cc1nc2cnc3ccc(C#N)cc3c2n1[C@@H]1CCO[C@H](C)C1 [Compound 256, N-(2,4-dimethyl-3-pyridyl){3-[(2R,4R)-2-methyltetrahydro-2H-pyran-4-yl]-12-cyano-3,5,8-triazatricyclo[7.4.0.0^2,6]trideca-1,4,6,8,10,12-hexaen-4-yl}acetamide] | 0.485 | 15.1 |
